Experimental findings from patent publication US9169254B2, “Spiroimidazolone derivative” (Chugai Seiyaku Kabushiki Kaisha, priority 2009, dated 2015) are described below.

SMILES strings stand for the structures.

This assay deals with T1, human PTH1 receptor (Homo sapiens, UniProt Q03431).
T1 sequence (Q03431 27-593): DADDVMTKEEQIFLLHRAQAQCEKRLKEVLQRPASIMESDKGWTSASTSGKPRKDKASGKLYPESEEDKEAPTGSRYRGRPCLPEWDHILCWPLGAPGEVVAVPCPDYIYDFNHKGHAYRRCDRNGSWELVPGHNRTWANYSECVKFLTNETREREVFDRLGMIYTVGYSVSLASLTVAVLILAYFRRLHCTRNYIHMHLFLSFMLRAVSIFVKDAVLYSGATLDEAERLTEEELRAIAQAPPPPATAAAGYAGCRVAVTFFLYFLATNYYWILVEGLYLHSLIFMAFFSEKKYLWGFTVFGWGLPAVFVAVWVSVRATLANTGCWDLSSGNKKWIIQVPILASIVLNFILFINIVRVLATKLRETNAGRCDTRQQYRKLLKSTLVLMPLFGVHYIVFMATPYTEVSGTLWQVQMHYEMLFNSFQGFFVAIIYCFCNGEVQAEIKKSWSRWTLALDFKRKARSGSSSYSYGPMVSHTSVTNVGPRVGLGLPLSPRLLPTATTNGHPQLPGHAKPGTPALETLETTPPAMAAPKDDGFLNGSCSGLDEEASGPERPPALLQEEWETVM
Put plainly: In vitro cAMP signal activity in HKRK-B7 cells (LLC-PK1 cells overexpressing the human PTH1 receptor). The conditions noted are these: HKRK-B7 cells; compound at 1×10^−3 M; cAMP produced as percentage of that produced by hPTH(1-34) at 100 nM. The class given is cell-based.
With `O=C1NC(c2ccc(Cl)cc2Cl)=NC12CCN(S(=O)(=O)c1cccc3cccnc13)CC2` [Compound 48, 2-(2,4-Dichloro-phenyl)-8-(quinoline-8-sulfonyl)-1,3,8-triaza-spiro[4.5]dec-1-en-4-one], the “cAMP production activity (%)” value came to 25%.

`O=C1NC(C2CCCCC2)=NC12CCN(S(=O)(=O)CCCCc1cccc3[nH]ccc13)CC2` [Compound 263, 2-cyclohexyl-8-[4-(1H-indol-4-yl)-butane-1-sulfonyl]-1,3,8-triaza-spiro[4.5]dec-1-en-4-one]: the “cAMP production activity (%)” value is listed as 41%.

As to `O=C1NC(C2CCC(CCC(F)(F)F)CC2)=NC12CCN(S(=O)(=O)/C=C/c1cccc3c1ccn3CCOC[C@H](O)[C@@H](O)CO)CC2` (stereo partly drawn) [Compound 706, 2-[4-(3,3,3-trifluoro-propyl)-cyclohexyl]-8-((E)-2-{1-[2-((2S,3S)-2,3,4-trihydroxy-butoxy)-ethyl]-1H-indol-4-yl}-ethenesulfonyl)-1,3,8-triaza-spiro[4.5]dec-1-en-4-one], the “cAMP production activity (%)” value was 90%.

`CC(C)C1=NC2(CCN(S(=O)(=O)c3cccc(Cl)c3)CC2)C(=O)N1` [Compound 4, 8-(3-chloro-benzenesulfonyl)-2-isopropyl-1,3,8-triaza-spiro[4.5]dec-1-en-4-one]: the “cAMP production activity (%)” value was found to be 11%.

Consider `CCCC[C@]1(F)CC[C@@H](C2=NC3(CCN(S(=O)(=O)CCc4ccc(NC(C)=O)cc4C)CC3)C(=O)N2)CC1` [Compound 1062, N-(4-{2-[2-(4-butyl-4-fluoro-cyclohexyl)-4-oxo-1,3,8-triaza-spiro[4.5]dec-1-ene-8-sulfonyl]-ethyl}-3-methyl-phenyl)-acetamide], for which the “cAMP production activity (%)” value is given as 65%.

On to `Cc1cc(NS(N)(=O)=O)ccc1/C=C/S(=O)(=O)N1CCC2(CC1)N=C(c1cccc(OC(F)(F)F)c1)NC2=O` [Compound 742, N-(3-Methyl-4-{(E)-2-[4-oxo-2-(3-trifluoromethoxy-phenyl)-1,3,8-triaza-spiro[4.5]dec-1-ene-8-sulfonyl]-vinyl}-phenyl)-sulfamide], for which the “cAMP production activity (%)” value worked out at 50%.

Turning to `Cc1cc(C(=O)N(C)C)ccc1CCS(=O)(=O)N1CCC2(CC1)N=C(C1CCOCC1)NC2=O` [Compound 123, 3,N,N-trimethyl-4-{2-[4-oxo-2-(tetrahydro-pyran-4-yl)-1,3,8-triaza-spiro[4.5]dec-1-ene-8-sulfonyl]-ethyl}-benzamide], the “cAMP production activity (%)” value was found to be 23%.

As to `Cc1cc2[nH]ccc2cc1/C=C/S(=O)(=O)N1CCC2(CC1)N=C(C1CCCCC1)NC2=O` [Compound 488, 2-cyclohexyl-8-[(E)-2-(6-methyl-1H-indol-5-yl)-ethenesulfonyl]-1,3,8-triaza-spiro[4.5]dec-1-en-4-one], the “cAMP production activity (%)” value is listed as 48%.

Take `CC(C)COC(=O)N1CCCC(C2=NC3(CCN(S(=O)(=O)c4cccc(Cl)c4)CC3)C(=O)N2)C1` (stereo not drawn) [Compound 462, 3-[8-(3-chloro-benzenesulfonyl)-4-oxo-1,3,8-triaza-spiro[4.5]dec-1-en-2-yl]-piperidine-1-carboxylic acid isobutyl ester]: the “cAMP production activity (%)” value is given as 47%.

Regarding `Cc1cc2[nH]c(=O)oc2c(C)c1CCS(=O)(=O)N1CCC2(CC1)N=C([C@H]1CC[C@H](C)CC1)NC2=O` [Compound 671, 8-[2-(5,7-Dimethyl-2-oxo-2,3-dihydro-benzoxazol-6-yl)-ethanesulfonyl]-2-(4-methyl-cyclohexyl)-1,3,8-triaza-spiro[4.5]dec-1-en-4-one], the “cAMP production activity (%)” value is reported as 81%.

Consider `Cc1cc(C(=O)N2CCCC2)ccc1/C=C/S(=O)(=O)N1CCC2(CC1)N=C(c1cccc(C(F)(F)F)c1F)NC2=O` [Compound 248, 2-(2-fluoro-3-trifluoromethyl-phenyl)-8-{(E)-2-[2-methyl-4-(pyrrolidine-1-carbonyl)-phenyl]-ethenesulfonyl}-1,3,8-triaza-spiro[4.5]dec-1-en-4-one], for which the “cAMP production activity (%)” value was 66%.

As to `Cc1cc(N(C(N)=O)C2CCCC2)ccc1/C=C/S(=O)(=O)N1CCC2(CC1)N=C(c1cccc(OC(F)(F)F)c1)NC2=O` [Compound 730, 1-cyclopentyl-1-(3-methyl-4-{(E)-2-[4-oxo-2-(3-trifluoromethoxy-phenyl)-1,3,8-triaza-spiro[4.5]dec-1-ene-8-sulfonyl]-vinyl}-phenyl)-urea], the “cAMP production activity (%)” value is 74%.

For `Cc1cc(C(=O)N2CCN(c3ccc(F)cc3)CC2)ccc1CCS(=O)(=O)N1CCC2(CC1)N=C(c1cccc(C(F)(F)F)c1)NC2=O` [Compound 375, 8-(2-{4-[4-(4-fluoro-phenyl)-piperazine-1-carbonyl]-2-methyl-phenyl}-ethanesulfonyl)-2-(3-trifluoromethyl-phenyl)-1,3,8-triaza-spiro[4.5]dec-1-en-4-one], the “cAMP production activity (%)” value was determined as 57%.

In the case of `Cc1cc(C(=O)N2CCOC2=O)cc(C)c1/C=C/S(=O)(=O)N1CCC2(CC1)N=C(C1CCCCC1)NC2=O` [Compound 1007, 2-Cyclohexyl-8-{(E)-2-[2,6-dimethyl-4-(2-oxo-oxazolidine-3-carbonyl)-phenyl]-ethenesulfonyl}-1,3,8-triaza-spiro[4.5]dec-1-en-4-one], the “cAMP production activity (%)” value worked out at 20%.

For the molecule `Cc1cc(N(CC(F)(F)F)C(N)=O)ccc1CCS(=O)(=O)N1CCC2(CC1)N=C(c1cccc(OC(F)(F)F)c1)NC2=O` [Compound 877, 1-(3-methyl-4-{2-[4-oxo-2-(3-trifluoromethoxy-phenyl)-1,3,8-triaza-spiro[4.5]dec-1-ene-8-sulfonyl]-ethyl}-phenyl)-1-(2,2,2-trifluoro-ethyl)-urea], the “cAMP production activity (%)” value was found to be 35%.

`Cc1cc(N(C)C(N)=O)cc(C)c1/C=C/[S@TB4](=O)(=O)N1CCC2(CC1)N=C(CCCCCCCCCCCCCC(=O)O)NC2=O` [Compound 1109, 14-(8-{(E)-2-[2,6-dimethyl-4-(1-methyl-ureido)-phenyl]-ethenesulfonyl}-4-oxo-1,3,8-triaza-spiro[4.5]dec-1-en-2-yl)-tetradecanoic acid]: the “cAMP production activity (%)” value came out at 29%.

As to `CC(=O)Nc1ccc(CCS(=O)(=O)N2CCC3(CC2)N=C(C2CCC(CC(F)(F)C(F)(F)F)CC2)NC3=O)c(C)c1` (stereo not drawn) [Compound 1080, N-[3-Methyl-4-(2-{4-oxo-2-[4-(2,2,3,3,3-pentafluoro-propyl)-cyclohexyl]-1,3,8-triaza-spiro[4.5]dec-1-ene-8-sulfonyl}-ethyl)-phenyl]-acetamide], the “cAMP production activity (%)” value is recorded as 81%.

`Cc1cc(C(=O)N(C)C)ccc1CCS(=O)(=O)N1CCC2(CC1)N=C(c1cccc(OC(F)(F)C(F)F)c1)NC2=O` [Compound 140, 3,N,N-trimethyl-4-(2-{4-oxo-2-[3-(1,1,2,2-tetrafluoro-ethoxy)-phenyl]-1,3,8-triaza-spiro[4.5]dec-1-ene-8-sulfonyl}-ethyl)-benzamide]: the “cAMP production activity (%)” value came to 77%.

With `Cc1cc(C(=O)N2CCC(O)(CO)CC2)cc(C)c1/C=C/S(=O)(=O)N1CCC2(CC1)N=C(c1cccc(OC(F)(F)F)c1)NC2=O` [Compound 403, 8-{(E)-2-[4-(4-hydroxy-4-hydroxymethyl-piperidine-1-carbonyl)-2,6-dimethyl-phenyl]-ethenesulfonyl}-2-(3-trifluoromethoxy-phenyl)-1,3,8-triaza-spiro[4.5]dec-1-en-4-one], the “cAMP production activity (%)” value was 51%.

On to `Cc1cc(N(CCO)C(=O)CO)ccc1CCS(=O)(=O)N1CCC2(CC1)N=C(c1cccc(OC(F)(F)F)c1)NC2=O` [Compound 930, 2-Hydroxy-N-(2-hydroxy-ethyl)-N-(3-methyl-4-{2-[4-oxo-2-(3-trifluoromethoxy-phenyl)-1,3,8-triaza-spiro[4.5]dec-1-ene-8-sulfonyl]-ethyl}-phenyl)-acetamide], for which the “cAMP production activity (%)” value stood at 92%.

Turning to `Cc1cc(C(=O)N(C)C)ccc1CCS(=O)(=O)N1CCC2(CC1)N=C(COc1ccc(Cl)cc1Cl)NC2=O` [Compound 131, 4-{2-[2-(2,4-dichloro-phenoxymethyl)-4-oxo-1,3,8-triaza-spiro[4.5]dec-1-ene-8-sulfonyl]-ethyl}-3,N,N-trimethyl-benzamide], the “cAMP production activity (%)” value stood at 72%.

As for `Cc1cc(N2C(=O)CC[C@@H]2COCCO)cc(C)c1/C=C/S(=O)(=O)N1CCC2(CC1)N=C(C1CCCCC1)NC2=O` [Compound 710, 2-cyclohexyl-8-((E)-2-{4-[(R)-2-(2-hydroxy-ethoxymethyl)-5-oxo-pyrrolidin-1-yl]-2,6-dimethyl-phenyl}-ethenesulfonyl)-1,3,8-triaza-spiro[4.5]dec-1-en-4-one], the “cAMP production activity (%)” value came to 76%.

Take `Cc1cc(OCCC(O)CO)cc(C)c1CCS(=O)(=O)N1CCC2(CC1)N=C(c1cccc(OC(F)(F)F)c1)NC2=O` (stereo not drawn) [Compound 676, 8-{2-[4-(3,4-dihydroxy-butoxy)-2,6-dimethyl-phenyl]-ethanesulfonyl}-2-(3-trifluoromethoxy-phenyl)-1,3,8-triaza-spiro[4.5]dec-1-en-4-one]: the “cAMP production activity (%)” value is given as 69%.

Regarding `CCCCCCC(CCC)CCC1=NC2(CCN(S(=O)(=O)CCc3c(C)cc(N(C)C(N)=O)cc3C)CC2)C(=O)N1` (stereo not drawn) [Compound 1353, 1-(3,5-dimethyl-4-{2-[4-oxo-2-(3-propyl-nonyl)-1,3,8-triaza-spiro[4.5]dec-1-ene-8-sulfonyl]-ethyl}-phenyl)-1-methyl-urea], the “cAMP production activity (%)” value was determined as 111%.
